# Test results published in publication PMC6630699, “Synthesis and Cytotoxicity Evaluation of DOTA-Conjugates of Ursolic Acid” (Molecules, 2019).
# “Also recorded” adds a separate entry of the source.
# Tests used:
# [1] = system: A375 (melanoma); assay: SRB cytotoxicity assay, A375; format: cell-based, human; details: for EC50: Homo sapiens, A-375, SRB assay, 72 h of treatment; for Selectivity index SI A375: SI = EC50 (NIH 3T3)/EC50 (A375)
# Excerpt: (§1) Due to cytotoxicity evaluation, the prepared UA-DOTA conjugates were screened in rhodamine B assays employing a series of human tumor cell lines and non-malignant mouse fibroblasts (NIH 3T3).
# (§2) The cell lines used are human cancer cell lines: A2780 (ovarian carcinoma), HT29 (colon adenocarcinoma), MCF-7 (breast adenocarcinoma), A375 (melanoma), FaDu (pharynx squamous cell carcinoma) and non-malignant mouse fibroblasts NIH 3T3; all cell lines were obtained from the Department of Oncology (Martin-Luther-University Halle-Wittenberg). Cultures were maintained as monolayers in RPMI 1640 medium with L-glutamine (Capricorn Scientific GmbH, Ebsdorfergrund, Germany) supplemented with 10% heat inactivated fetal bovine serum (Sigma-Aldrich Chemie GmbH, Steinheim, Germany) and penicillin/streptomycin (Capricorn Scientific GmbH, Ebsdorfergrund, Germany) at 37 °C in a humidified atmosphere with 5% CO2.
# (§3) The cytotoxicity of the compounds was evaluated using the sulforhodamine-B (Kiton-Red S, ABCR) micro culture colorimetric assay. Cells were seeded into 96-well plates on day 0 at appropriate cell densities to prevent confluence of the cells during the period of experiment. After 24 h, the cells were treated with six different concentrations (1, 3, 7, 12, 20, and 30 µM) minimum. The final concentration of DMSO/DMF never exceeded 0.5%, which was non-toxic to the cells. After a 72-h treatment, the supernatant medium from the 96-well plates was discarded, the cells were fixed with 10% trichloroacetic acid (TCA) and allowed to rest at 4 °C. After 24 h fixation, the cells were washed in a strip washer and dyed with SRB solution (100 µL, 0.4%, in 1% acetic acid) for about 20 min. After dying, the plates were washed four times with 1% acetic acid to remove the excess of the dye and allowed to air-dry overnight. Tris base solution (200 µL, 10 mM) was added to each well and absorbance was measured at λ = 570 nm using a 96 well plate reader (Tecan Spectra, Crailsheim, Germany). The EC50 values were averaged from three independent experiments performed each in triplicate calculated from semi logarithmic dose response curves applying a non-linear 4P Hills-slope equation (GraphPad Prism5; variables top and bottom were set to 100 and 0, respectively).
# [2] = system: A2780 (ovarian carcinoma); assay: SRB cytotoxicity assay, A2780; format: cell-based, human; details: for EC50: SRB assay, 72 h of treatment; for Selectivity index SI A2780: SI = EC50 (NIH 3T3)/EC50 (A2780)
# Excerpt: as §1, §2, §3
# [3] = system: HT29 (colon adenocarcinoma); assay: SRB cytotoxicity assay, HT29; format: cell-based, human; details: for EC50: Homo sapiens, HT-29, SRB assay, 72 h of treatment; for Selectivity index SI HT29: SI = EC50 (NIH 3T3)/EC50 (HT29)
# Excerpt: as §1, §2, §3
# [4] = system: MCF-7 (breast adenocarcinoma); assay: SRB cytotoxicity assay, MCF-7; format: cell-based, human; details: for EC50: Homo sapiens, MCF7, SRB assay, 72 h of treatment; for Selectivity index SI MCF-7: SI = EC50 (NIH 3T3)/EC50 (MCF-7)
# Excerpt: as §1, §2, §3
# [5] = system: FaDu (pharynx squamous cell carcinoma); assay: SRB cytotoxicity assay, FaDu; format: cell-based, human; details: for EC50: Homo sapiens, FaDu, SRB assay, 72 h of treatment; for Selectivity index SI FaDu: SI = EC50 (NIH 3T3)/EC50 (FaDu)
# Excerpt: as §1, §2, §3
# [6] = system: non-malignant mouse fibroblasts NIH 3T3; assay: SRB cytotoxicity assay, NIH 3T3; format: cell-based; details: NIH3T3, 72 h of treatment
# Excerpt: as §1, §2, §3
# [7] = system: A375 cells; assay: Annexin V-FITC/PI assay (flow cytometry); format: cell-based, human
# Method: Approximately 2 × 10^5 cells (A375) were seeded in cell culture flasks (25 cm^2), and the cells were allowed to grow up for 24 h. After removing of the used medium, the substance loaded fresh medium was reloaded (or a blank fresh medium as a control). After 24 h and 48 h, the cells were harvested, centrifuged (1200 rpm, 4 °C), and washed twice with PBS (w/Ca^2+ and Mg^2+, 1 mL). The cells were counted and approximately 1∙10^6 cells were washed with Annexin V binding buffer (BioLegend®, San Diego, USA) and treated with propidium iodide solution (3 µL, 1 mg/mL) and Annexin V-FITC (5 µL, BioLegend®, San Diego, CA, USA) for 15 min in the dark at room temperature. After adding Annexin V binding buffer (400 µL) the suspension was analyzed using Attune® FACS machine. After gating for living cells, the data from detectors BL-1A and BL-3A were collected (20,000 events) in technical triplicates. The assay was performed in duplicates; cell distribution was calculated using Attune® Software (ThermoFisher Scientific, Braunschweig, Germany).
# [8] = system: A375 cells; assay: AO/PI dye exclusion test (fluorescence microscopy); format: cell-based, human
# Method: Morphological characteristics of cell death were analyzed employing an AO/PI assay using human cancer cell line A375. Approx. 2 × 10^5 cells were seeded in cell culture flasks (25 cm^2), and the cells were allowed to grow up for 24 h. After removing of the used medium, the substance loaded fresh medium was reloaded (or a blank new medium as a control). After 24 h and 48 h, the content of the flask was collected and centrifuged (1200 rpm, 4 °C), the pellet was gently suspended in phosphate-buffered saline (PBS (w/Ca^2+ and Mg^2+), 1 mL) and centrifuged again. The PBS was removed, and the pellet gently suspended in PBS (150 µL) again. The analysis of the cells was performed using a fluorescence microscope after having mixed the cell suspension (10 µL) with a solution of AO/PI (5 µg/mL, 10 µL).
# [9] = system: A375 cells; assay: Cell cycle investigations (PI, flow cytometry); format: cell-based, human
# Method: Approximately 2 × 10^5 cells (A375) were seeded in cell culture flasks (25 cm^2), and the cells were allowed to grow up for 24 h. After removing of the used medium, the substance loaded fresh medium was reloaded (or a blank fresh medium as a control). After 24 h or 48 h, respectively, only the adherent cells were harvested, centrifuged (1200 rpm, 4 °C), and washed twice with PBS ((w/w), 1 mL). The cells were counted and approximately 1 × 10^6 cells were fixed with ethanol (70%, 4 °C, 24 h). After centrifugation (4500 rpm, 4 °C) the cells were washed with PBS ((w/w), 1 mL) and centrifuged. The pellet was resuspended in 1 mL RNAse A containing PI buffer (100µL RNAse (100 mg/mL), 15 µL PI solution (1 mg/mL)) and after incubating for 30 min at room temperature in the dark, cells were analyzed using the Attune® FACS machine; collecting data from the BL-2A channel. Doublet cells were excluded from the measurements by plotting BL-2A against BL-2H. For each cell cycle distribution 20,000 events were collected in technical triplicates, each sample was measured in duplicates. Cell cycle distribution was calculated using ModFitLT™ (Verity Software House, Topsham, ME, USA).
# [10] = system: human tumor cell lines; assay: SRB cytotoxicity assay, statements over the whole cell line panel; format: cell-based; details: summary over all tumor cell lines
# Excerpt: as §1, §2, §3
structure (smiles),measurement,setting,value
"CC(=O)O[C@H]1CC[C@@]2(C)C(CC[C@]3(C)C2CC=C2C4[C@@H](C)[C@H](C)CC[C@]4(C(=O)N4CCN(C(=O)CN5CCN(CC(=O)OC(C)(C)C)CCN(CC(=O)OC(C)(C)C)CCN(CC(=O)OC(C)(C)C)CC5)CC4)CC[C@]23C)C1(C)C (stereo partly drawn) [compound 22, Tri-tert-butyl 2,2’,2’’-[10-[2-[4-(3β-acetyloxy-urs-12-en-28-oyl)piperazin-1-yl]-2-oxoethyl]-1,4,7,10-tetraazacyclododecane-1,4,7-triyl]triacetate]",EC50,[1],1.5 ± 0.4 µM
same,Selectivity index SI A375,[1],3.07
same,EC50,"[2]; Homo sapiens, A2780, 72 h",1.7 µM
same,Selectivity index SI A2780,[2],2.42
same,EC50,[2],1.9 ± 0.3 µM
same,EC50,[3],5.7 ± 0.5 µM
same,Selectivity index SI HT29,[3],0.81
same,EC50,[4],4.4 ± 0.7 µM
same,Selectivity index SI MCF-7,[4],1.05
same,EC50,[5],3.7 ± 0.6 µM
same,Selectivity index SI FaDu,[5],1.24
same,EC50,[6],4.6 ± 1 µM
same,density plots versus control,"[7]; A375, 3.0 µM, 24 h",no significant differences in comparison to the control
same,annexin V-FITC-positive cells,"[7]; A375, 3.0 µM, 48 h",32.9%
same,apoptotic cells (R4),"[7]; A375, 3.0 µM, 48 h",17.4%
same,vital cells (R3),"[7]; A375, 3.0 µM, 48 h, control 86.0%",66.3%
same,fluorescence microscopic images versus control,"[8]; A375, 3.0 µM, 24 h",no significant differences in comparison to the control
same,cell morphology in fluorescence microscopic images,"[8]; A375, 3.0 µM, 48 h",ruptures of the plasma membrane
same,cell cycle distribution versus control,"[9]; A375, 3.0 µM, 48 h","G1/G0, G2/M, and S phase were drastically reduced; also recorded: an increased population of cells with reduced DNA content has been observed in the subG1 region"
"CC(=O)O[C@H]1CC[C@@]2(C)C(CC[C@]3(C)C2CC=C2C4[C@@H](C)[C@H](C)CC[C@]4(C(=O)NCCNC(=O)CN4CCN(CC(=O)OC(C)(C)C)CCN(CC(=O)OC(C)(C)C)CCN(CC(=O)OC(C)(C)C)CC4)CC[C@]23C)C1(C)C (stereo partly drawn) [compound 24, Tri-tert-butyl 2,2’,2’’-[10-[2-[2-(3β-acetyloxy-urs-12-en-28-oylamino)ethyl]amino-2-oxoethyl]-1,4,7,10-tetraazacyclododecane-1,4,7-triyl]triacetate]",EC50,[1],2 ± 0.1 µM
same,Selectivity index SI A375,[1],0.70
same,EC50,"[2]; Homo sapiens, A2780, 72 h",1.7 ± 0.1 µM
same,Selectivity index SI A2780,[2],0.82
same,EC50,[3],2.3 ± 0.3 µM
same,Selectivity index SI HT29,[3],0.61
same,EC50,[4],1.8 ± 0.1 µM
same,Selectivity index SI MCF-7,[4],0.78
same,EC50,[5],2 ± 0.2 µM
same,Selectivity index SI FaDu,[5],0.70
same,EC50,[6],1.4 ± 0.1 µM
same,EC50,[10],< 2.5 µM
same,annexin V-FITC-positive cells,"[7]; A375, 4.0 µM, 24 h",63%
same,apoptotic cells (R4),"[7]; A375, 4.0 µM, 24 h",51.9%
same,vital cells (R3),"[7]; A375, 4.0 µM, 24 h, control 86.1%",36.7%
same,cell morphology in fluorescence microscopic images,"[8]; A375, 4.0 µM, 24 h",vital cells (green staining) with some of them having ruptured cell membranes
same,cell cycle distribution versus control,"[9]; A375, 4.0 µM, 24 h","decreased number of cells in G1/G0, G2/M, as well as in S phase; also recorded: a large population of cells has been shifted into the subG1 region"
